Molecules are shown by their SMILES.

Test [1] has as its system 3T3-L1 adipocytes. The test can be described thus: Intracellular Ca2+ in cultured adipocytes (fura-2). It is filed as cell-based, mouse. To be noted: H2O2 100 nmol/L, 4 hours; p<0.001. How it is done: 3T3-L1 preadipocytes were incubated at a density of 8000 cells/cm^2 (10 cm^2 dish) and grown in Dulbecco's modified Eagle's medium (DMEM) containing 10% FBS and antibiotics (adipocyte medium) at 37° C. in 5% CO2 in air. Confluent preadipocytes were induced to differentiate with a standard differentiation medium consisting of DMEM-F10 (1:1, vol/vol) medium supplemented with 1% FBS, 1 μM dexamethasone, IBMX (0.5 mM) and antibiotics (1% Penicillin-Streptomycin). Preadipocytes were maintained in this differentiation medium for 3 days and subsequently cultured in adipocyte medium. Cultures were re-fed every 2-3 days to allow 90% of cells to reach full differentiation before conducting chemical treatment. Chemicals were freshly diluted in adipocyte medium before treatment. Cells were washed with fresh adipocyte medium, re-fed with medium containing the different treatments, and incubated at 37° C. in 5% CO2 in air before analysis. Cell viability was measured via trypan blue exclusion. [Ca^2+]i in adipocytes was measured using a fura-2 dual-wavelength fluorescence imaging system. Cells were plated in 35-mm dishes […]). […] Cells were loaded with fura-2 acetoxymethyl ester (fura-2 AM) (10 μmol/L) in the same buffer for 2 h at 37° C. in a dark incubator with 5% CO2. To remove extracellular dye, cells were rinsed with HBSS three times and then post-incubated at room temperature for an additional 1 h for complete hydrolysis of cytoplasmic fura-2 AM. The dishes with dye-loaded cells were mounted on the stage of Nikon TMS-F fluorescence inverted microscope with a Cohu model 4915 charge-coupled device (CCD) camera. Fluorescent images were captured alternatively at excitation wavelengths of 340 and 380 nm with an emission wavelength of 520 nm. After establishment of a stable baseline, the responses to 1α, 25-(OH)2-D3 was determined. [Ca^2+]i was calculated using a ratio equation as described previously. Each analysis evaluated responses of 5 representative whole cells. Images were analyzed with […]2 version 4.62 imaging software (Intracellular Imaging, Cincinnati, Ohio). […]

Test [2] relates to cyclin A. The test can be described thus: Cyclin A expression in cultured adipocytes. It is filed as cell-based, mouse. As to conditions: compound plus glucose 30 mmol/L, 48 hours. The protocol: 3T3-L1 preadipocytes were incubated at a density of 8000 cells/cm^2 (10 cm^2 dish) and grown in Dulbecco's modified Eagle's medium (DMEM) containing 10% FBS and antibiotics (adipocyte medium) at 37° C. in 5% CO2 in air. Confluent preadipocytes were induced to differentiate with a standard differentiation medium consisting of DMEM-F10 (1:1, vol/vol) medium supplemented with 1% FBS, 1 μM dexamethasone, IBMX (0.5 mM) and antibiotics (1% Penicillin-Streptomycin). Preadipocytes were maintained in this differentiation medium for 3 days and subsequently cultured in adipocyte medium. Cultures were re-fed every 2-3 days to allow 90% of cells to reach full differentiation before conducting chemical treatment. Chemicals were freshly diluted in adipocyte medium before treatment. […] Cell viability was measured via trypan blue exclusion. Adipocyte 18s, cyclin A, NADPH oxidase, and UCP2 were quantitatively measured using a Smart Cycler Real Time PCR System (Cepheid, Sunnyvale, Calif.) with a TaqMan 1000 Core Reagent Kit (Applied Biosystems, Branchburg, N.J.). […] Reactions of quantitative RT-PCR for standards and unknown samples were also performed according to the instructions of Smart Cycler System (Cepheid, Sunnyvale, Calif.) and TaqMan Real Time PCR Core Kit (Applied Biosystems, Branchburg, N.J.). The mRNA quantitation for each sample was further normalized using the corresponding 18s quantitation.

Test [3] concerns TNFα. The test can be described thus: TNFα expression in RAW 264 macrophages. The class given is cell-based. How it is done: RAW 264 macrophages and 3T3-L1 preadipocytes (American Type Culture Collection) were incubated at a density of 8000 cells/cm2 (10 cm2 dish) and grown in Dulbecco's modified Eagle's medium (DMEM) containing 10% FBS and antibiotics (adipocyte medium) at 37° C. in 5% CO2 in air. Confluent 3T3-L1 preadipocytes were induced to differentiate with a standard differentiation medium consisting of DMEM-F10 (1:1, vol/vol) medium supplemented with 1% FBS, 1 μM dexamethasone, IBMX (0.5 mM) and antibiotics (1% Penicillin-Streptomycin). Preadipocytes were maintained in this differentiation medium for 3 days and subsequently cultured in adipocyte medium. Cultures were re-fed every 2-3 days to allow 90% cells to reach fully differentiation for 3T3-L1 adipocytes or grow to a confluence for RAW 264 before conducting chemical treatment.
Cells were washed with fresh adipocyte medium, re-fed with medium containing the indicated treatments, and incubated at 37° C. in 5% CO2 for 48 hours before analysis. Cell viability was measured via trypan blue exclusion.
Human adipocytes (Zen-Bio, Inc.), 3T3-L1 adipocytes, RAW264 macrophages were obtained and co-cultured by using transwell inserts with 0.4 μm porous membranes (Corning) to separate adipocytes and macrophages. All data are expressed as mean±SEM. Data were evaluated for statistical significance by analysis of one-way or two-way variance (ANOVA; means with different letter differ, p<0.05).
Adipocyte and muscle 18s, CD14, TNFα, MIP, M-CSF, IL-6 and MCP-1 were quantitatively measured using a Smart Cycler Real Time PCR System (Cepheid, Sunnyvale, Calif.) with a TaqMan 1000 Core Reagent Kit (Applied Biosystems, Branchburg, N.J.). […] Reactions of quantitative RT-PCR for standards and unknown samples were also performed according to the instructions of Smart Cycler System (Cepheid, Sunnyvale, Calif.) and TaqMan Real Time PCR Core Kit (Applied Biosystems, Branchburg, N.J.). The mRNA quantitation for each sample was further normalized using the corresponding 18s quantitation.

Test [4] concerns fatty acid synthase. The test can be described thus: Fatty acid synthase gene expression in adipocytes. It is filed as cell-based, murine. To be noted: p<0.05. The text has this:
The adipose tissue-skeletal muscle endocrine axis may play a potential role in regulating metabolic energy partitioning. […] However, the effect of leucine and calcium, in regulating this process is unclear. Accordingly, present study was designed to investigate the effect of leucine, calcitriol and calcium on energy metabolism in murine adipocytes and muscle cells.

With `OO` [H2O2, hydrogen peroxide], the “increase in [Ca2+]i” value in test [1] turned out to be 5 fold.

On to `C=C1/C(=C\C=C2/CCC[C@]3(C)[C@@H]([C@H](C)CCCC(C)(C)O)CC[C@@H]23)C[C@@H](O)C[C@@H]1O` [calcitriol, 1,25-(OH)2-D3], for which the “effect on glucose stimulated cyclin A expression” value in test [2] is “augmented”. In addition, the “stimulation of TNFα expression” value in test [3] (RAW 264 macrophages cultured alone) turned out to be 91%. For the same compound, in test [3] (co-culture with differentiated 3T3-L1 adipocytes), the “effect on TNFα expression in macrophages” value is reported as “further enhanced”. Also, the “increase in adipocyte FAS gene expression” value in test [4] is listed as 3 fold.

The record behind these values is patent US20110038948A1, “Methods of Reducing the Production of Reactive Oxygen Species and Methods of Screening or Identifying Compounds and Compositions that Reduce the Production of Reactive Oxygen Species” (UNIVERSITY OF TENNESSEE RESEARCH FOUNDATION, priority 2005, published 2011).
